The record followed here is publication PMC7370300, “Deciphering the Binding of Salicylic Acid to Arabidopsis thaliana Chloroplastic GAPDH-A1” (International Journal of Molecular Sciences, 2020).

What all share (format): binding
The target of experiment [1] is T1, GAPA1 (chloroplastic glyceraldehyde 3-phosphate dehydrogenase A1) (Arabidopsis thaliana, UniProt P25856).
T1 sequence (P25856 60-396): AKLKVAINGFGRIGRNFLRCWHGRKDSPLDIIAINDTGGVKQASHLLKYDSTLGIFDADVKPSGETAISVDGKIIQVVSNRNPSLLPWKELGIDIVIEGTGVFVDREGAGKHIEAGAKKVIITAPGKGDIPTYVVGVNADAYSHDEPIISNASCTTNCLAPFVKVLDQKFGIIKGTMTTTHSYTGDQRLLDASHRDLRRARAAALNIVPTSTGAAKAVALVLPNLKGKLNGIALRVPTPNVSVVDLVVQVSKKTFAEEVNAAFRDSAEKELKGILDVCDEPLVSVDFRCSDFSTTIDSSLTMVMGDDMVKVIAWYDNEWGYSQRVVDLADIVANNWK
Description: SPR competition with immobilised 3-AESA (competition seen from […] NADH).

The target in experiment [2] is GAPA1 (chloroplastic glyceraldehyde 3-phosphate dehydrogenase A1) (Arabidopsis thaliana, UniProt P25856, N94G). Description: SPR on immobilised 3-AESA, […] protein; response diminished by […] versus WT.
Sequence of GAPA1 (chloroplastic glyceraldehyde 3-phosphate dehydrogenase A1) (Arabidopsis thaliana, UniProt P25856, N94G) (P25856 60-396 N94G): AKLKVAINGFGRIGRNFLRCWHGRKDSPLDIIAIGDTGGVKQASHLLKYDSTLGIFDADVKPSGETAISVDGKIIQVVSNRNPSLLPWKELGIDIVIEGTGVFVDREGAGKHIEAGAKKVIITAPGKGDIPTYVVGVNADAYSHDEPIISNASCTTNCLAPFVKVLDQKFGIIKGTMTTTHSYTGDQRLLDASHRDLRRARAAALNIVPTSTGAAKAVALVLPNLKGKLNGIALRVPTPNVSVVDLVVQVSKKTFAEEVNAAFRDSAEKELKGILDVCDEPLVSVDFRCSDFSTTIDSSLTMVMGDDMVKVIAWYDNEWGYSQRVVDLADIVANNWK
Experiment [3] concerns the target GAPA1 (chloroplastic glyceraldehyde 3-phosphate dehydrogenase A1) (Arabidopsis thaliana, UniProt P25856, W378L). Description: SPR on immobilised 3-AESA.
Experiment [4] concerns the target T1, GAPA1 (chloroplastic glyceraldehyde 3-phosphate dehydrogenase A1). In words: SPR (Biacore […]), 3-AESA immobilised via its amino group on CM5 chip, […] Langmuir fit.
Experiment [5] shares this target. Description: SPR competition with immobilised 3-AESA; also inhibits GAPDH activity of purified GAPA1 ([…] at […]).

Sequence of GAPA1 (chloroplastic glyceraldehyde 3-phosphate dehydrogenase A1) (Arabidopsis thaliana, UniProt P25856, W378L) (P25856 60-396 W378L): as the sequence (P25856 60-396 N94G) above, with G35N, W319L counted along it

Consider `NC(=O)C1=CN([C@@H]2O[C@H](COP(=O)(O)OP(=O)(O)OC[C@H]3O[C@@H](n4cnc5c(N)ncnc54)[C@H](O)[C@@H]3O)[C@@H](O)[C@H]2O)C=CC1` [NADH], for which the “SPR competition with immobilised 3-AESA (competition seen from 2 μM NADH)” value in experiment [1] is “pre-incubation of GAPA1 on ice with NADH reduced the level of GAPA1 association with immobilised 3-AESA”.

Broadly, the Kd is a measure of binding affinity in units of concentration. A lower Kd goes with higher affinity. Turning to `NCCc1cccc(C(=O)O)c1O` [3-AESA, 3-aminoethyl salicylic acid], the “SPR on immobilised 3-AESA, 50 nM protein; response diminished by 66% versus WT” value in experiment [2] is listed as “No complete loss of ability to bind 3-AESA was observed in these mutated proteins”. Also, the “SPR on immobilised 3-AESA” value in experiment [3] is given as “the ability of GAPA1 Trp319Leu to bind 3-AESA was not affected”. The dissociation constant (Kd) in experiment [4] was 16.7 ± 5.7 nM.

In the case of `O=C(O)c1ccccc1O` [SA, 2-hydroxybenzoic acid], the “SPR competition with immobilised 3-AESA; also inhibits GAPDH activity of purifie” value in experiment [5] is “GAPA1 association with immobilised 3-AESA was inhibited by the presence of SA in a running buffer in a concentration-dependent manner”.
